Test results reported in ChEMBL document CHEMBL5143754, “Novel Bcl-2 Inhibitors Selectively Disrupt the Autophagy-Specific Bcl-2-Beclin 1 Protein-Protein Interaction” (ACS Med Chem Lett, 2022).

Columns and labels:
[1] = target: T1, Apoptosis regulator Bcl-2 (Homo sapiens, UniProt P10415); test: Inhibition of biotin-linker-Beclin 1 BH3 peptide binding to human C-terminal 6His-tagged Bcl-2 (1 to 218 residues) expressed in Escherichia coli BL21 Star (DE3) pLysS measured after 3 hrs by AlphaLISA assay
T1 sequence (P10415 whole entry, the tested form may be a part): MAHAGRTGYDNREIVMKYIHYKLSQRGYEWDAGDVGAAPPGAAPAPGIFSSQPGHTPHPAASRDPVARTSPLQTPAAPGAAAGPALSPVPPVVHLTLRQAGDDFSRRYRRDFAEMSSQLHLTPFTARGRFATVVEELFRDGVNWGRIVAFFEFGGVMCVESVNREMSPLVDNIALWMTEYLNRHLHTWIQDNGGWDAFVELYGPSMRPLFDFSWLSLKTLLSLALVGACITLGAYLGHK

[2] = target: T1, Apoptosis regulator Bcl-2; test: Inhibition of biotin-linker-Bax BH3 peptide binding to human C-terminal 6His-tagged Bcl-2 (1 to 218 residues) expressed in Escherichia coli BL21 Star (DE3) pLysS measured after 3 hrs by AlphaLISA assay
[3] = Half life in ICR/CD-1 mouse liver microsomes at 2 uM preincubated for 5 mins followed by NADPH regenerating system addition by LC-MS/MS analysis; format: ADME, Microsome

**Q.** With `CC(C)(C)OC(=O)Nc1cccc(C2=NN(C(=O)c3ccc(Br)cc3)C(c3ccccc3)C2)c1` (racemic) as the compound, how does the IC50 [1] read?
**A.** 11.1 µM

**Q.** With `CC(C)C(=O)Oc1ccc(C2=NN(C(=O)c3ccc(Br)cc3)C(c3ccccc3)C2)cc1` (racemic) as the compound, how does the IC50 [1] read?
**A.** 5.45 µM

**Q.** With `CC(C)(C)OC(=O)Nc1ccc(C2=NN(C(=O)c3ccc(Br)cc3)C(c3ccncc3)C2)cc1` (racemic) as the compound, how does the IC50 [1] read?
**A.** 2.78 µM

**Q.** For `CC(C)OC(=O)c1ccc(C2=NN(C(=O)c3ccc(Br)cc3)C(c3ccccc3)C2)cc1` (racemic), which IC50 [1] is on record?
**A.** 0.11 µM

**Q.** And the IC50 [2]?
**A.** 4.36 µM

**Q.** With `CS(=O)(=O)Nc1ccc(C2=NN(C(=O)c3ccc(C#N)cc3)C(c3ccco3)C2)cc1` (racemic) as the compound, how does the IC50 [1] read?
**A.** 7.44 µM

**Q.** With `CC(C)OC(=O)Nc1ccc(C2=NN(C(=O)c3ccc(Br)cc3)C(c3ccccc3)C2C)cn1` (racemic) as the compound, how does the IC50 [1] read?
**A.** 0.002 µM

**Q.** What about the IC50 [2] of the same compound?
**A.** 0.157 µM

**Q.** With `CC(C)OC(=O)Nc1ccc(C2=NN(C(=O)c3ccc(Br)cc3)C(c3ccccc3)C2)cc1` (racemic) as the compound, how does the IC50 [1] read?
**A.** 0.0044 µM

**Q.** And the IC50 [2]?
**A.** 0.881 µM

**Q.** What about the half-life at 2 µM [3] of the same compound?
**A.** 120 min

**Q.** For `CC(C)(C)NC(=O)Nc1ccc(C2=NN(C(=O)c3ccc(Br)cc3)C(c3ccccc3)C2)cc1` (racemic), which IC50 [1] is on record?
**A.** 9.22 µM

**Q.** For `CC(C)(C)OC(=O)Nc1ccc(C2=NN(C(=O)c3cccnc3)C(c3ccccc3)C2)cc1` (racemic), which IC50 [1] is on record?
**A.** 14.5 µM

**Q.** Which half-life at 2 µM [3] does the source give for `Cc1ccc(C(=O)N2N=C(c3ccc(NS(C)(=O)=O)cc3)CC2c2ccccc2Br)cc1` (configuration not stated) here?
**A.** 2.9 min

**Q.** For `CS(=O)(=O)Nc1ccc(C2=NN(C(=O)c3ccc(Br)cc3)C(c3ccco3)C2)cc1` (racemic), which IC50 [1] is on record?
**A.** 2.47 µM

**Q.** What about the half-life at 2 µM [3] of the same compound?
**A.** 2.9 min

**Q.** Which IC50 [1] does the source give for `CCOC(=O)Nc1ccc(C2=NN(C(=O)c3ccc(Br)cc3)C(c3ccccc3)C2)cc1` (racemic) here?
**A.** 0.0328 µM

**Q.** And the IC50 [2]?
**A.** 6.62 µM

**Q.** Which IC50 [1] does the source give for `CC(C)(C)OC(=O)Nc1ccc(C2=NN(C(=O)c3ccc(Br)cc3)C(c3cccnc3)C2)cc1` (racemic) here?
**A.** 1.63 µM

**Q.** Which IC50 [1] does the source give for `CC(C)(C)OC(=O)Nc1ccc(C2=NN(C(=O)c3ccc(Br)cc3)C(c3ccccn3)C2)cc1` (racemic) here?
**A.** 0.65 µM

**Q.** For `CC(C)(C)OC(=O)Nc1ccc(C2=NN(C(=O)c3ccc(Br)cc3)C(c3nccs3)C2)cc1` (racemic), which IC50 [1] is on record?
**A.** 1.61 µM

**Q.** Which IC50 [1] does the source give for `CS(=O)(=O)Nc1ccc(C2=NN(C(=O)c3ccc(F)cc3)C(c3ccco3)C2)cc1` (racemic) here?
**A.** 12.7 µM

**Q.** For `O=C(Nc1ccc(C2=NN(C(=O)c3ccc(Br)cc3)C(c3ccccc3)C2)cc1)OC1CC1` (racemic), which IC50 [1] is on record?
**A.** 0.0441 µM

**Q.** What about the IC50 [2] of the same compound?
**A.** 15.1 µM

**Q.** For `COc1ccc(C(=O)N2N=C(c3ccc(NS(C)(=O)=O)cc3)CC2c2ccco2)cc1` (racemic), which IC50 [1] is on record?
**A.** 10.1 µM

**Q.** Which IC50 [1] does the source give for `CC(C)(C)OC(=O)Nc1ccc(C2=NN(C(=O)c3ccc(Br)cc3)C(c3ccccc3)C2c2ccccc2)cc1` (racemic) here?
**A.** 0.172 µM

**Q.** For `CC(C)COC(=O)Nc1ccc(C2=NN(C(=O)c3ccc(Br)cc3)C(c3ccccc3)C2)cc1` (racemic), which IC50 [1] is on record?
**A.** 0.164 µM

**Q.** For `CC(C)(C)OC(=O)Nc1ccc(C2=NN(C(=O)c3ccc(Br)cc3)C(c3ccoc3)C2)cc1` (racemic), which IC50 [1] is on record?
**A.** 3.82 µM

**Q.** For `Cc1ccc(C(=O)N2N=C(c3ccc(NS(C)(=O)=O)cc3)CC2c2ccco2)cc1` (racemic), which IC50 [1] is on record?
**A.** 15.9 µM

**Q.** And the IC50 [2]?
**A.** > 10 µM

**Q.** What about the half-life at 2 µM [3] of the same compound?
**A.** 2.9 min

**Q.** With `C#CCCOC(=O)Nc1ccc(C2=NN(C(=O)c3ccc(Br)cc3)C(c3ccccc3)C2)cc1` (racemic) as the compound, how does the IC50 [1] read?
**A.** 0.065 µM

**Q.** Which IC50 [1] does the source give for `COC(=O)Nc1ccc(C2=NN(C(=O)c3ccc(Br)cc3)C(c3ccccc3)C2)cc1` (racemic) here?
**A.** 2.1 µM

**Q.** Which IC50 [1] does the source give for `CC(C)(C)OC(=O)Nc1ccc(C2=NN(C(=O)c3ccc(Br)cc3)C(c3cncs3)C2)cc1` (racemic) here?
**A.** 4.36 µM

**Q.** Which IC50 [1] does the source give for `CS(=O)(=O)Nc1ccc(C2=NN(C(=O)c3ccc(C(F)(F)F)cc3)C(c3ccco3)C2)cc1` (racemic) here?
**A.** 2.88 µM

**Q.** What about the half-life at 2 µM [3] of the same compound?
**A.** 2.9 min

**Q.** With `Cc1ccc(C(=O)N2N=C(c3ccc(NC(=O)OC(C)(C)C)cc3)CC2c2ccco2)cc1` (racemic) as the compound, how does the IC50 [1] read?
**A.** 3.29 µM

**Q.** Which IC50 [1] does the source give for `CC1C(c2ccc(NC(=O)OC(C)(C)C)cc2)=NN(C(=O)c2ccc(Br)cc2)C1c1ccccc1` (racemic) here?
**A.** 0.0274 µM

**Q.** With `C=CCOC(=O)Nc1ccc(C2=NN(C(=O)c3ccc(Br)cc3)C(c3ccccc3)C2)cc1` (racemic) as the compound, how does the IC50 [1] read?
**A.** 0.0318 µM

**Q.** What about the IC50 [2] of the same compound?
**A.** 8.83 µM

**Q.** For `CS(=O)(=O)Nc1ccc(C2=NN(C(=O)c3ccc(Cl)cc3)C(c3ccco3)C2)cc1` (racemic), which IC50 [1] is on record?
**A.** 2.72 µM

**Q.** Which IC50 [1] does the source give for `COC(=O)c1ccc(C2=NN(C(=O)c3ccc(Br)cc3)C(c3ccccc3)C2)cc1` (racemic) here?
**A.** 1.64 µM

**Q.** Which IC50 [1] does the source give for `CN(C)C(=O)c1ccc(C2=NN(C(=O)c3ccc(Br)cc3)C(c3ccccc3)C2)cc1` (racemic) here?
**A.** 5.91 µM

**Q.** For `CC(C)(C)OC(=O)Nc1ccc(C2=NN(C(=O)c3ccc(Br)cc3)C(c3ccccc3)C2)cn1` (racemic), which IC50 [1] is on record?
**A.** 0.309 µM

**Q.** For `CS(=O)(=O)Nc1ccc(C2=NN(C(=O)c3ccc([N+](=O)[O-])cc3)C(c3ccco3)C2)cc1` (racemic), which IC50 [1] is on record?
**A.** 1.97 µM

**Q.** What about the half-life at 2 µM [3] of the same compound?
**A.** 2.9 min

**Q.** With `CC(C)(C)OC(=O)Nc1ccc(C2=NN(C(=O)c3ccc(Br)cc3)C(c3ccco3)C2)cc1` (racemic) as the compound, how does the IC50 [1] read?
**A.** 1.26 µM

**Q.** With `CC(C)(C)OC(=O)Nc1ccc(C2=NN(C(=O)c3ccc([N+](=O)[O-])cc3)C(c3ccccc3)C2)cc1` (racemic) as the compound, how does the IC50 [1] read?
**A.** 0.439 µM

**Q.** What about the half-life at 2 µM [3] of the same compound?
**A.** 120 min

**Q.** Which IC50 [1] does the source give for `CC(C)(C)OC(=O)Nc1ccc(C2=NN(C(=O)c3ccc(Br)cc3)C(c3ccccc3)C2)cc1` (racemic) here?
**A.** 0.262 µM

**Q.** What about the half-life at 2 µM [3] of the same compound?
**A.** 120 min

**Q.** Which IC50 [1] does the source give for `CC(C)(C)OC(=O)Nc1ccc(C2=NN(C(=O)c3ccc(Br)cc3)C(c3ccccc3)C2)nc1` (racemic) here?
**A.** 0.372 µM
